Laboratory results reported in patent publication US10336792B2, “Antimicrobial peptide dendrimers” (priority 2014, dated 2019).
≈ marks a conversion by molar mass, not a printed value. Positions of bridges follow the written chain, without caps; N, C: chain ends. Non-standard residues stand in square brackets, D forms with d. Residues, ends and D or L forms follow the SMILES beside them. Groups on a side chain read outwards from the residue. Chains are numbered I, II in the order given. Dab = NCC[C@H](N)C(=O)O

What was measured:
[1] = tested on: Staphylococcus aureus (COL, MRSA reference strain); assay type: cell-based; settings: COL, reference strain
Method in brief: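 Broth microdilution in Müller-Hinton medium, two-fold serial dilutions from a starting 32–256 μg/mL, compounds dissolved in PBS; inoculum about 5×10^5 CFU, incubated 37° C ~18 h. MIC taken as lowest concentration with no visible growth by eye; polymyxin as reference.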

[2] = tested on: Pseudomonas aeruginosa (strain PA01); assay: microbe, parasite or virus in culture; assay type: cell-based; settings: strain
Method in brief: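 P. aeruginosa PAO1 grown overnight in LB, diluted to OD600 0.001 and mixed with ⅔-step peptide dilutions, then incubated at 37 °C for 18–24 h. After MTT staining, the lowest concentration with no visible growth was read by eye as the MIC.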

[3] = tested on: Bacillus subtilis (strain BR151); assay type: cell-based; settings: strain BR151
Method in brief: (§1)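 Broth microdilution MIC in LB; overnight cultures diluted to OD600 0.001 and mixed 1:1 with ⅔-serially diluted samples (stock 1 mg mL^−1 in H2O), 37° C for 18-24 h. MTT (0.1%) added; MIC read by eye as lowest concentration inhibiting visible growth (yellow).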

[4] = tested on: Escherichia coli (strain DH5α); assay type: cell-based; settings: DH5α
Method in brief: as §1

[5] = 5(6)-Carboxyfluorescein leakage from lipid vesicles; settings: 10 mM TRIS, 107 mM NaCl, pH 7.4; peptide added at 50 s
Procedure: (§2) Preparation A thin lipid film was prepared by evaporating a solution of 25 mg Egg PC or Egg PG in 1 mL MeOH/CHCl3 1/1 on a rotary evaporator (rt) and then in vacuo overnight. The resulting film was hydrated with 1 mL buffer (50 mM CF, 10 mM TIRS, 10 mM NaCl, pH 7.4) for 30 min, subjected to freeze-thaw cycles (7×) and extrusion (15×) through a polycarbonate membrane (pore size 100 nm). Extravesicular components were removed by gel filtration (Sephadex G-50) with 10 mM TRIS, 107 mM NaCl, pH 7.4. Final conditions: ˜2.5 mM Egg PC or Egg PG; inside: 50 mM CF, 10 mM TIRS, 10 mM NaCl, pH 7.4; outside: 10 mM TRIS, 107 mM NaCl, pH 7.4.
(§3) Experiment Egg PC or Egg PG stock solutions (37.5 μL) were diluted with a buffer (10 mM TRIS, 107 mM NaCl, pH 7.4) and placed in a thermostated fluorescence cuvette (25° C.) and gently stirred (total volume in the cuvette ˜3000 μL; final lipid concentration ˜31.25 μM). CF efflux was monitored at λem 517 nm (λex 492 nm) as a function of time after addition of 20 μL of peptide dendrimer in buffer (10 mM TRIS, 107 mM NaCl, pH 7.4) with final concentrations of 1, 5, 7.5, 10, 15, 20, 25, 30 μg/mL at t=50 s and 1.2% trition X-100 (30 μL, 0.012% final concentration) at t=300 s. Fluorescence intensities were normalized to fractional emission intensity I(t) using I(t)=(It−I0)/(I∞−I0) where I0 It at peptide dendrimer addition, I∞=It at saturation of lysis.
Bacterial membranes contain relatively large amounts of exposed anionic lipids, while the outer leaflet of the membranes of plants and animals is composed mainly of lipids with no net charge. The charge composition of such membranes can be mimicked with phospholipid vesicles. Large unilamellar vesicles (LUVs) composed of the neutral phospholipid with PC (phosphatidyl choline) or with PG (phosphatidyl glycerol) with negative charges were prepared encapsulating 5(6)-carboxyfluorescein (CF). […] The higher the concentration of MSt-112 the higher is the CF leakage (FIG. 6A). […] Overall the active AMPDs interact with the negatively charged membrane and release the CF.

B. subtilis BR151 = assay: Preliminary resistant development assay (daily MIC for 15 days); assay type: cell-based, Bacillus subtilis; settings: bacteria from 1/2 MIC well re-tested daily
Procedure: MICs of compounds for B. subtilis BR151 were determined daily for 15 days using cells from the well in which the compound concentration was one-half the MIC value (½ MIC well). […] The re-suspension was then diluted to 5×10^5 cells/ml in LB Broth (OD600=0.1 then diluted 1:100 fold to get OD600=0.001) and used to again determine the MIC of the same compound to which those cells had previously been exposed. All MIC determinations were done in duplicate.
For an initial estimation of how fast resistances could arise with AMPDs the MIC was repeated for 15 days in a row and determined each day. After obtaining the MIC value in usual broth dilution assay the bacteria (B. subtilis) from the ½ MIC well were incubated for 2-5 hours and the dilution assay was repeated. This procedure was realized for 15 days and the MICs of each day compared. In case of an increase of the MIC, it is indicative for a resistance against the AMPDs.

[6] = 5(6)-Carboxyfluorescein leakage from lipid vesicles; settings: 10 mM TRIS, 107 mM NaCl, pH 7.4; peptide added at 50 s; remark: listed apart in the source
Procedure: as §2, §3

Question: What does the source list for `NCC[C@H](NC(=O)[C@H](CCCCNC(=O)[C@H](Cc1c[nH]c2ccccc12)NC(=O)[C@H](CCN)NC(=O)[C@H](CCCCNC(=O)[C@H](Cc1c[nH]c2ccccc12)NC(=O)[C@@H](N)CCN)NC(=O)[C@H](Cc1c[nH]c2ccccc12)NC(=O)[C@@H](N)CCN)NC(=O)[C@H](Cc1c[nH]c2ccccc12)NC(=O)[C@H](CCN)NC(=O)[C@H](CCCCNC(=O)[C@H](Cc1c[nH]c2ccccc12)NC(=O)[C@@H](N)CCN)NC(=O)[C@H](Cc1c[nH]c2ccccc12)NC(=O)[C@@H](N)CCN)C(=O)N[C@@H](Cc1c[nH]c2ccccc12)C(N)=O` [MSt-176, (DabW)4(KDabW)2(KDabW)] (I: H-[Dab]WK([Trp-Dab])[Dab]WK[Dab]W-NH2 / II: H-[Dab]WK([Trp-Dab])[Dab]W; amide I:6-II:C; N-terminus assumed)?
Answer: MIC S. aureus (COL, MRSA reference strain) [1]: below 20 μg/mL; MIC P. aeruginosa PAO1 [2]: 1 mg/L (≈ 0.416 µM); MIC B. subtilis BR151 [3]: 1 mg/L (≈ 0.416 µM); MIC E. coli DH5α [4]: 3 mg/L (≈ 1.25 µM); CF leakage from phosphatidylglycerol LUVs [5]: immediate leakage of CF; change of MIC over 15 days (resistance) (B. subtilis BR151): did not have a significant change of their MIC values over 15 days; CF leakage from phosphatidylcholine LUVs [6]: induced CF release
